Measurements reported in ChEMBL document CHEMBL1201862, “PubChem BioAssay data set” (2004).
Calls of active or inactive are those of the source.

What was measured:
[1] = alpha-synuclein stem-loop luciferase translation blockers – H4 neuroglioma cells, luminescence, confirmation (AID 1988); assay type: functional, cell-based
[2] = HEK-293T cell viability reduction – luminescence, B-cell screen hits, cytotoxicity control for BCR NF-kB inhibitor project, dose response (AID 489021); assay type: functional, cell-based;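 note: HEK-293T cells carrying an NF-kB luciferase reporter; cells exposed to compound for about 14 hours before viability readout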
[3] = luciferase reporter signal suppression in cells – H4 neuroglioma cells, luminescence, dose response (AID 1990); assay type: functional, cell-based
[4] = Luminescence Cell-Based Dose Response HTS to Identify Inhibitors of 5'UTR Stem-Loop Driven Prion Protein mRNA Translation in H4 Neuroglioblastoma Cells. [Related pubchem assays: 1827 (Project Summary), 1813 (Primary HTS)]; assay type: functional
Procathepsin L = Procathepsin L (Homo sapiens, UniProt P07711)
Sequence of Procathepsin L (P07711 whole entry): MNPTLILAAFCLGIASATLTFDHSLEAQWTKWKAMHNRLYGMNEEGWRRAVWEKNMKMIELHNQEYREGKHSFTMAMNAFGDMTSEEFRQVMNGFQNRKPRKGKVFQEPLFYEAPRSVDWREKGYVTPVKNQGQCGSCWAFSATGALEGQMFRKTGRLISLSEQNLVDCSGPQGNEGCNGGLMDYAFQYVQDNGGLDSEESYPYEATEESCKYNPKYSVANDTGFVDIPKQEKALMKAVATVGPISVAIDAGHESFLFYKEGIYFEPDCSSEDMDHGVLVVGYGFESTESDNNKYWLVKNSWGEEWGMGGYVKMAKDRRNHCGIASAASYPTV

Aspartyl aminopeptidase = biological target: T1, Aspartyl aminopeptidase (Plasmodium falciparum 3D7, UniProt Q8I2J3)
T1 sequence (Q8I2J3 whole entry): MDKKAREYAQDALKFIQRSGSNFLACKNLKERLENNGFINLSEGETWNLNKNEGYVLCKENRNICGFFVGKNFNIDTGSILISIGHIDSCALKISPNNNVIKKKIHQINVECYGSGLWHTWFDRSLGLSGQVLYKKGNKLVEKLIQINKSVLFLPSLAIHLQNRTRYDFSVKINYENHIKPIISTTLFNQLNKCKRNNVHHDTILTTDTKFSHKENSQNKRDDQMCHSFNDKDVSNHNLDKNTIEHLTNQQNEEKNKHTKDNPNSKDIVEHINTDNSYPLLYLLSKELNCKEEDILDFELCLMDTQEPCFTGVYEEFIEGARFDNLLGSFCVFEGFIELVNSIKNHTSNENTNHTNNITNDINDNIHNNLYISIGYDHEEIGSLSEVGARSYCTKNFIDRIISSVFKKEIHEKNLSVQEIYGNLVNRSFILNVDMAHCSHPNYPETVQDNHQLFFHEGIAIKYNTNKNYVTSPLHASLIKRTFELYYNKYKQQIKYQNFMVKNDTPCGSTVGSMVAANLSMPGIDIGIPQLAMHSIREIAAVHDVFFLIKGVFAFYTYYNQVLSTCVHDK

[5] = biological target: T2, Microphthalmia-associated transcription factor (Homo sapiens, UniProt O75030); experiment: reducers of TRPM1 reporter luminescence, concentration series – cell-based, SK-MEL-5, cherry-picked, set 3, MITF inhibitor project, dose response (AID 493073); assay type: functional;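 note: SK-MEL-5 melanoma cells with luciferase driven by the MITF target TRPM1 promoter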
T2 sequence (O75030 whole entry): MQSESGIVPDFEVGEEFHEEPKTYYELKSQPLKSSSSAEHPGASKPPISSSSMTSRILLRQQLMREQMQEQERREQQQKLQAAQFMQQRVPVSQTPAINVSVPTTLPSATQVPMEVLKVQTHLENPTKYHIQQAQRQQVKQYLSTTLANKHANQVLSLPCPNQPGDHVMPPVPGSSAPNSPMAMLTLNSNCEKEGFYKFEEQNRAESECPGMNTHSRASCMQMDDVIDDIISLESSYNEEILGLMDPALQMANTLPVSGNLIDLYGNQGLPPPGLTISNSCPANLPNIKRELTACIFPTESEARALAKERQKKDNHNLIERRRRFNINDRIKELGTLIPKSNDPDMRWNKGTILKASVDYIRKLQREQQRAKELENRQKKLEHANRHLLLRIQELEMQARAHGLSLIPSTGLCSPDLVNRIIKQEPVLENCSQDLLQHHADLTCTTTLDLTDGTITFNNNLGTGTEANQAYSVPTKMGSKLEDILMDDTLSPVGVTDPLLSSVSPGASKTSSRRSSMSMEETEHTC

[6] = viability loss of HPDE-C7K cells – cell-based, fluorescence, HTS, primary screen (AID 431); assay type: functional; details: Homo sapiens
[7] = HPDE-C7 pancreatic duct cell viability loss – fluorescence, HTS (AID 430); assay type: functional, cell-based; details: Homo sapiens
Cytochrome P450 2C19 = Cytochrome P450 2C19 (Homo sapiens, UniProt P33261); experiment: Cytochrome panel assay with activity outcomes. Panel member name: p450-cyp2c19 Compounds with AC50 equal or less than 10 uM are considered active; assay type: functional; details: read-out: AC50
Sequence of Cytochrome P450 2C19 (P33261 whole entry): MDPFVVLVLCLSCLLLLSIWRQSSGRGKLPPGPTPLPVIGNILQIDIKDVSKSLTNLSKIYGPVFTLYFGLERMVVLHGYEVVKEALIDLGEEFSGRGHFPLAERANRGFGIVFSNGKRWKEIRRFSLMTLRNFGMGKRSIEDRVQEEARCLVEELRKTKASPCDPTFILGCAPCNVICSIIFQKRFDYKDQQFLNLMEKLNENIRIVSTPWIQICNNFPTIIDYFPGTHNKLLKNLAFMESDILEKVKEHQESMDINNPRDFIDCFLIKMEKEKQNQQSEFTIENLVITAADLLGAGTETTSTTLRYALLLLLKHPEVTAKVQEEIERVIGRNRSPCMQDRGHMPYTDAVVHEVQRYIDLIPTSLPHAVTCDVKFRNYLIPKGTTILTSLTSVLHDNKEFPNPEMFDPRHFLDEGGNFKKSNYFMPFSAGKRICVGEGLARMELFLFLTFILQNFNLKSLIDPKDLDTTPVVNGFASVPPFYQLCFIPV

Cytochrome P450 3A4 = Cytochrome P450 3A4 (Homo sapiens, UniProt P08684);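 note: CYP3A4 tested as one member of a cytochrome P450 panel screen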
Sequence of Cytochrome P450 3A4 (P08684 whole entry): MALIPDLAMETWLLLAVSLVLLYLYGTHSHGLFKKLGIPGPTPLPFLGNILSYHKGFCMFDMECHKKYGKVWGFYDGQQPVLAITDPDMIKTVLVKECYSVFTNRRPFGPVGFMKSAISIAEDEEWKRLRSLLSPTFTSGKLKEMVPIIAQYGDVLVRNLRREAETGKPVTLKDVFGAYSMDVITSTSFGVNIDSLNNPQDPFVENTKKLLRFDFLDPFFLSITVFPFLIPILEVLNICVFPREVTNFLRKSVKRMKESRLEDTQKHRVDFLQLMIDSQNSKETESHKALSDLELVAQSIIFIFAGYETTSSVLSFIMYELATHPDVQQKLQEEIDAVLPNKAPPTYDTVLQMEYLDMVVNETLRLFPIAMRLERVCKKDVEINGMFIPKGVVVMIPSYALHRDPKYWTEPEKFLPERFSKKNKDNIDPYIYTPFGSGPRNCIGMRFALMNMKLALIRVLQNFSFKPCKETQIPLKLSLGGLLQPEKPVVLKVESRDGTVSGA

SMILES: Cc1ccc(CSc2nnc(SCC(=O)N/N=C/C=C/c3ccccc3[N+](=O)[O-])s2)cc1
- EC50 [1]: 12.1 µM (active)
- IC50 [2]: > 80 µM (inactive)
- EC50 [3]: 9.7 µM (active)
- EC50 [4]: 12.9 µM (active)

SMILES: Cc1ccc(N=C(S)Nn2cnnc2)c(C)c1
- IC50 (Procathepsin L): > 59.6 µM (not active)
- IC50 (Aspartyl aminopeptidase): 2.11 µM (active)

SMILES: O=C(Nc1cccc(Cl)c1Cl)Nn1cnnc1
- IC50 (Procathepsin L): > 59.6 µM (not active)
- IC50 (Aspartyl aminopeptidase): 0.631 µM (active)

SMILES: CC1(C)C2([N+](=O)[O-])CN3CC1([N+](=O)[O-])CN(C2)C3c1ccc(O)c(O)c1 (centres undefined)
- IC50 (Procathepsin L): > 59.6 µM (not active)
- IC50 (Aspartyl aminopeptidase): 1.19 µM (active)

SMILES: COc1cc2c(cc1O)C(SC)=NC(C)(C)C2
- AC50 [5]: 11.3 µM (active)
- EC50 [6]: 13.6 µM (active)
- EC50 [7]: 14.1 µM (active)

SMILES: N#C/C(=C\c1ccc[nH]1)Sc1nc2ccccc2s1
- EC50 [6]: > 20 µM (not active)
- EC50 [7]: > 20 µM (not active)

SMILES: Cc1ccc(N2C(=O)/C(=C/Nn3cnnc3)c3ccccc3C2=O)cc1
- IC50 (Procathepsin L): > 59.6 µM (not active)
- AC50 (Cytochrome P450 2C19): 10 µM (inconclusive)
- AC50 (Cytochrome P450 3A4): 15.8 µM (inconclusive)
- IC50 (Aspartyl aminopeptidase): 1.67 µM (active)
